Each compound was assayed against T1, HIV-1 reverse transcriptase (HIV-1 RT) (HIV-1 M:B_HXB2R, UniProt P04585) (assay: RT ELISA (DIG-labelled reaction mixture, anti-DIG-POD, ABTS; Roche kit)). Conditions: 37 °C, 15 h.
T1 construct: gene gag-pol; recombinant HIV-1 RT used with commercial ELISA kit (Roche Molecular Biochemicals); mature chains cut from Gag-Pol polyprotein; with p51 RT
Type: biochemical
Source text: RT ELISA (DIG-labelled reaction mixture, anti-DIG-POD, ABTS; Roche kit) on HIV-1 reverse transcriptase (HIV-1 RT)
Compound `CC(=O)N(C)/C=C/c1ccccc1Cl` [5k, (E)-N-(2-chlorostyryl)-N-methylacetamide] has an IC50 of 434 ± 44 µM. Compound `CC(=O)N(C)/C=C/c1ccccc1F` [5n, (E)-N-(2-fluorostyryl)-N-methylacetamide] has an IC50 of 477 ± 107 µM. In the case of `O=C(O)P(=O)(O)O` [PFA, reference compound], the IC50 is reported as 5 µM. For `CC(=O)N(C)/C=C/c1ccccc1Br` [5c, (E)-N-(2-bromostyryl)-N-methylacetamide], the IC50 was 339 ± 107 µM. `COc1ccc(/C=C/N(C)C(C)=O)c(OC)c1` [5r, (E)-N-(2,4-dimethoxystyryl)-N-methylacetamide] gave an IC50 of 373 ± 40 µM. `CC(=O)N(C)/C=C/c1ccccc1C` [5p, (E)-N-(2-methylstyryl)-N-methylacetamide] was tested, and the IC50 was 487 ± 27 µM. Work on `CC(=O)N(/C=C/c1ccccc1Br)Cc1cc(F)cc(F)c1` [5i, (E)-N-(2-bromostyryl)-N-3’,5’-difluorobenzylacetamide] yielded an IC50 of 97 ± 13 µM. `CC(=O)N(/C=C/c1ccccc1Br)C(C)=O` [5f, (E)-N-(2-bromostyryl)-N-acetylacetamide] showed an IC50 of 320 ± 22 µM. With `CC(=O)N(/C=C/c1ccccc1Br)Cc1c(F)cccc1F` [5h, (E)-N-(2-bromostyryl)-N-2’,6’-difluorobenzylacetamide] the IC50 was 295 ± 9 µM. With `CCN(/C=C/c1ccccc1Cl)C(C)=O` [5l, (E)-N-(2-chlorostyryl)-N-ethylacetamide] the IC50 was 521 ± 11 µM.

From publication PMC6254728, “Synthesis and Anti-Human Immunodeficiency Virus Type 1 Activity of (E)-N-Phenylstyryl-N-alkylacetamide Derivatives” (Molecules, 2009)
